# System: 171881-019-R-J1-PDC tumor spheroid viability
# Assay: Anticancer human tumor 171881-019-R-J1-PDC patient-derived invasive breast carcinoma cell line growth inhibition [PI3K]
# Details: spheroids with HUVEC and MSC; for IC50: curve of first compound; for viability, T/C: stronger effect = lower value
# Outline: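 Tumor cells were combined with HUVEC and MSCs into spheroids, then dosed with PI3K-inhibitor combinations over half-log ranges capped near clinical Cmax or 10 microM.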
# [1] = second compound 0.00316 µM, first compound 0.0316 µM
# [2] = second compound 0.00316 µM, first compound 0.1 µM
# [3] = second compound 0.01 µM, first compound 0.0316 µM
# [4] = second compound 0.01 µM, first compound 0.1 µM
# [5] = second compound 0.0316 µM, first compound 0.0316 µM
# [6] = second compound 0.0316 µM, first compound 0.1 µM
# [7] = second compound 0.1 µM, first compound 0.0316 µM
# [8] = second compound 0.1 µM, first compound 0.1 µM
# [9] = second compound 0.316 µM, first compound 0.0316 µM
# [10] = second compound 0.316 µM, first compound 0.1 µM
# [11] = second compound 1 µM, first compound 0.0316 µM
# [12] = second compound 1 µM, first compound 0.1 µM
# [13] = second compound 0.0316 µM, first compound 0.316 µM
# [14] = second compound 0.0316 µM, first compound 1 µM
# [15] = second compound 0.0316 µM, first compound 3.16 µM
# [16] = second compound 0.0316 µM, first compound 10 µM
# [17] = second compound 0.1 µM, first compound 0.316 µM
# [18] = second compound 0.1 µM, first compound 1 µM
# [19] = second compound 0.1 µM, first compound 3.16 µM
# [20] = second compound 0.1 µM, first compound 10 µM
# [21] = second compound 0.316 µM, first compound 0.316 µM
# [22] = second compound 0.316 µM, first compound 1 µM
# [23] = second compound 0.316 µM, first compound 3.16 µM
# [24] = second compound 0.316 µM, first compound 10 µM
# [25] = second compound 1 µM, first compound 0.316 µM
# [26] = second compound 1 µM, first compound 1 µM
# [27] = second compound 1 µM, first compound 3.16 µM
# [28] = second compound 1 µM, first compound 10 µM
# 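Also: spheroids exposed to compound for 7 days before viability read.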
# 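For viability, T/C in this document: 100% = DMSO vehicle-treated spheroids.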
smiles,measurement,setting,value
CC(C)n1nc(-c2ccc3oc(N)nc3c2)c2c(N)ncnc21 + COc1c(OCCCN2CCOCC2)ccc2c3n(c(=NC(=O)c4cnc(N)nc4)nc12)CCN3,IC50,second compound 0.00316 µM,3.55 nM
same,IC50,second compound 0.01 µM,< 0.316 nM
same,IC50,second compound 0.0316 µM,< 0.316 nM
same,IC50,second compound 0.1 µM,< 0.316 nM
same,IC50,second compound 0.316 µM,< 0.316 nM
same,IC50,second compound 1 µM,< 0.316 nM
same,"viability, T/C","second compound 0.00316 µM, first compound 0.000316 µM",61.1%
same,"viability, T/C","second compound 0.00316 µM, first compound 0.001 µM",66.3%
same,"viability, T/C","second compound 0.00316 µM, first compound 0.00316 µM",47.6%
same,"viability, T/C","second compound 0.00316 µM, first compound 0.01 µM",36.1%
same,"viability, T/C",[1],13.1%
same,"viability, T/C",[2],3.55%
same,"viability, T/C","second compound 0.01 µM, first compound 0.000316 µM",46%
same,"viability, T/C","second compound 0.01 µM, first compound 0.001 µM",45.8%
same,"viability, T/C","second compound 0.01 µM, first compound 0.00316 µM",36.4%
same,"viability, T/C","second compound 0.01 µM, first compound 0.01 µM",19.3%
same,"viability, T/C",[3],8.72%
same,"viability, T/C",[4],2.78%
same,"viability, T/C","second compound 0.0316 µM, first compound 0.000316 µM",23.6%
same,"viability, T/C","second compound 0.0316 µM, first compound 0.001 µM",22.3%
same,"viability, T/C","second compound 0.0316 µM, first compound 0.00316 µM",16%
same,"viability, T/C","second compound 0.0316 µM, first compound 0.01 µM",8.85%
same,"viability, T/C",[5],4.14%
same,"viability, T/C",[6],2.34%
same,"viability, T/C","second compound 0.1 µM, first compound 0.000316 µM",8.49%
same,"viability, T/C","second compound 0.1 µM, first compound 0.001 µM",7.85%
same,"viability, T/C","second compound 0.1 µM, first compound 0.00316 µM",5.37%
same,"viability, T/C","second compound 0.1 µM, first compound 0.01 µM",3.59%
same,"viability, T/C",[7],2.66%
same,"viability, T/C",[8],1.6%
same,"viability, T/C","second compound 0.316 µM, first compound 0.000316 µM",2.47%
same,"viability, T/C","second compound 0.316 µM, first compound 0.001 µM",2.41%
same,"viability, T/C","second compound 0.316 µM, first compound 0.00316 µM",2.58%
same,"viability, T/C","second compound 0.316 µM, first compound 0.01 µM",1.51%
same,"viability, T/C",[9],1.36%
same,"viability, T/C",[10],1.1%
same,"viability, T/C","second compound 1 µM, first compound 0.000316 µM",1.08%
same,"viability, T/C","second compound 1 µM, first compound 0.001 µM",0.86%
same,"viability, T/C","second compound 1 µM, first compound 0.00316 µM",1.3%
same,"viability, T/C","second compound 1 µM, first compound 0.01 µM",1.16%
same,"viability, T/C",[11],1.03%
same,"viability, T/C",[12],1.05%
CCCS(=O)(=O)Nc1ccc(F)c(C(=O)c2c[nH]c3ncc(-c4ccc(Cl)cc4)cc23)c1F + COc1c(OCCCN2CCOCC2)ccc2c3n(c(=NC(=O)c4cnc(N)nc4)nc12)CCN3,IC50,second compound 0.00316 µM,5730 nM
same,IC50,second compound 0.01 µM,4520 nM
same,IC50,second compound 0.0316 µM,< 31.6 nM
same,IC50,second compound 0.1 µM,< 31.6 nM
same,IC50,second compound 0.316 µM,< 31.6 nM
same,IC50,second compound 1 µM,< 31.6 nM
same,"viability, T/C",[1],70.6%
same,"viability, T/C",[2],81.9%
same,"viability, T/C","second compound 0.00316 µM, first compound 0.316 µM",94.3%
same,"viability, T/C","second compound 0.00316 µM, first compound 1 µM",108%
same,"viability, T/C","second compound 0.00316 µM, first compound 3.16 µM",93.7%
same,"viability, T/C","second compound 0.00316 µM, first compound 10 µM",12.9%
same,"viability, T/C",[3],53.8%
same,"viability, T/C",[4],60%
same,"viability, T/C","second compound 0.01 µM, first compound 0.316 µM",67.2%
same,"viability, T/C","second compound 0.01 µM, first compound 1 µM",83.6%
same,"viability, T/C","second compound 0.01 µM, first compound 3.16 µM",76.5%
same,"viability, T/C","second compound 0.01 µM, first compound 10 µM",9.83%
same,"viability, T/C",[5],29%
same,"viability, T/C",[6],29.3%
same,"viability, T/C",[13],32%
same,"viability, T/C",[14],40.5%
same,"viability, T/C",[15],45.8%
same,"viability, T/C",[16],5.59%
same,"viability, T/C",[7],9.3%
same,"viability, T/C",[8],10.5%
same,"viability, T/C",[17],10.9%
same,"viability, T/C",[18],13.9%
same,"viability, T/C",[19],17.3%
same,"viability, T/C",[20],2.6%
same,"viability, T/C",[9],2.18%
same,"viability, T/C",[10],2.42%
same,"viability, T/C",[21],3.05%
same,"viability, T/C",[22],2.63%
same,"viability, T/C",[23],3.95%
same,"viability, T/C",[24],2.09%
same,"viability, T/C",[11],1.32%
same,"viability, T/C",[12],1.32%
same,"viability, T/C",[25],1.47%
same,"viability, T/C",[26],1.16%
same,"viability, T/C",[27],1.64%
same,"viability, T/C",[28],3.34%
CC1(C)CCC(CN2CCN(c3ccc(C(=O)NS(=O)(=O)c4ccc(NCC5CCOCC5)c([N+](=O)[O-])c4)c(Oc4cnc5[nH]ccc5c4)c3)CC2)=C(c2ccc(Cl)cc2)C1 + Cc1nc(NC(=O)N2CCCC2C(N)=O)sc1-c1ccnc(C(C)(C)C(F)(F)F)c1,IC50,second compound 0.0316 µM,3840 nM
same,IC50,second compound 0.1 µM,3340 nM
same,IC50,second compound 0.316 µM,1530 nM
same,IC50,second compound 1 µM,< 31.6 nM
same,IC50,second compound 3.16 µM,< 31.6 nM
same,IC50,second compound 10 µM,< 31.6 nM
same,"viability, T/C",[5],102%
same,"viability, T/C",[6],86.9%
same,"viability, T/C",[13],90.8%
same,"viability, T/C",[14],81.5%
same,"viability, T/C",[15],56.6%
same,"viability, T/C",[16],13.9%
same,"viability, T/C",[7],94.3%
same,"viability, T/C",[8],70.6%
same,"viability, T/C",[17],75.5%
same,"viability, T/C",[18],73.7%
same,"viability, T/C",[19],52%
same,"viability, T/C",[20],13.1%
same,"viability, T/C",[9],54.8%
same,"viability, T/C",[10],52.6%
same,"viability, T/C",[21],56.1%
same,"viability, T/C",[22],57.6%
same,"viability, T/C",[23],41%
same,"viability, T/C",[24],10.3%
same,"viability, T/C",[11],33.8%
same,"viability, T/C",[12],34.3%
same,"viability, T/C",[25],33.6%
same,"viability, T/C",[26],33.4%
same,"viability, T/C",[27],31.6%
same,"viability, T/C",[28],8.49%
same,"viability, T/C","second compound 3.16 µM, first compound 0.0316 µM",13.2%
same,"viability, T/C","second compound 3.16 µM, first compound 0.1 µM",14.2%
same,"viability, T/C","second compound 3.16 µM, first compound 0.316 µM",12.7%
same,"viability, T/C","second compound 3.16 µM, first compound 1 µM",14.6%
same,"viability, T/C","second compound 3.16 µM, first compound 3.16 µM",15.9%
same,"viability, T/C","second compound 3.16 µM, first compound 10 µM",5.35%
same,"viability, T/C","second compound 10 µM, first compound 0.0316 µM",3.36%
same,"viability, T/C","second compound 10 µM, first compound 0.1 µM",3.47%
same,"viability, T/C","second compound 10 µM, first compound 0.316 µM",3.28%
same,"viability, T/C","second compound 10 µM, first compound 1 µM",3.12%
same,"viability, T/C","second compound 10 µM, first compound 3.16 µM",3.52%
same,"viability, T/C","second compound 10 µM, first compound 10 µM",2.22%

# — PubChem BioAssay AID1963986 (Molecular Pharmacology Branch, DTP, NCI, 2024)
